Experiments:
[1] = system: homovanillinic acid (HVA); assay: Determination of homovanillinic acid (HVA) in brains of treated rats; dopamine turnover in the basal ganglions; type: in vivo; conditions: for Increase of HVA, %: two hours before killing, untreated rats set at 100%; for activity in HVA test compared with chlorpromazine (in words): p.o., in comparison to chlorpromazine
Procedure: I. determination of Homovanillinic Acid
Two hours prior to being killed, rats are injected with the test substance.
Thereafter, the homovanillinic acid is extracted from the supernatent portion of a homogenized mixture of brains of the treated rats into butylacetate and later into an aqueous solution and is oxidized with potassium ferric cyanide to a fluorescent […]. […] The homovanillinic titer in untreated rats is arbitrarily set at 100%.

in vivo = conditions: rats, intraperitoneal; for ED50 at 6 h: rat, in vivo, ip, observed every 30 minutes over a 6-hour period, cataleptic = homolateral extremities crossed at least 10 seconds, read-out: ED50 (dose at which 50% of the animals are cataleptic); for cataleptic effect (in words): in comparison to chlorpromazine
Procedure: The following compounds were tested:
The foregoing compounds were compared to chlorpromazine, a well-known central depressant, especially well-known as a neuroleptic agent. The test animals are considered to be cataleptic when the homolateral extremities remain in the crossed position for at least 10 seconds. The number of cataleptic animals is recorded every 30 minutes over a 6-hour period.

CN(C)CCCN1c2ccccc2Sc2ccc(Cl)cc21 [Chlorpromazine, reference compound]
Increase of HVA, % ([1]; 20 mg/kg p.o.): 321% | ED50 at 6 h (in vivo): 6 mg/kg | cataleptic effect (in words) (in vivo): does demonstrate cataleptic effects

CSc1ccc2c(c1)C(C#CCN(C)C)=Cc1ccccc1S2.O=C(O)/C=C\C(=O)O [Product A, N,N-dimethyl-3-[8-(methylthio)-dibenzo[b,f]thiepin-10-yl]-2-propynylamine maleate]
Increase of HVA, % ([1]; 50 mg/kg p.o.): 330% | activity in HVA test compared with chlorpromazine (in words) [1]: as strong an activity as chlorpromazine | ED50 at 6 h (in vivo): > 100 mg/kg | cataleptic effect (in words) (in vivo): no or, respectively, very weak cataleptic effect

CN(C)CC#CC1=Cc2ccccc2Sc2ccc(Cl)cc21.O=C(O)/C=C\C(=O)O [Product B, N,N-dimethyl-3-(8-chloro-dibenzo[b,f]thiepin-10-yl)-2-propynylamine maleate]
Increase of HVA, % ([1]; 50 mg/kg p.o.): 370% | activity in HVA test compared with chlorpromazine (in words) [1]: as strong an activity as chlorpromazine | ED50 at 6 h (in vivo): 100 mg/kg | cataleptic effect (in words) (in vivo): no or, respectively, very weak cataleptic effect

COc1ccc2c(c1)Sc1ccc(Cl)cc1C(C#CCN(C)C)=C2.CS(=O)(=O)O [Product C, N,N-dimethyl-3-(8-chloro-3-methoxydibenzo[b,f]thiepin-10-yl)-2-propynylamine methanesulfonate]
Increase of HVA, % ([1]; 30 mg/kg p.o.): 320% | activity in HVA test compared with chlorpromazine (in words) [1]: as strong an activity as chlorpromazine | ED50 at 6 h (in vivo): > 100 mg/kg | cataleptic effect (in words) (in vivo): no or, respectively, very weak cataleptic effect
